One data set can be described thus: Oral bioavailability. The conditions noted are these: in vivo, rodents. The protocol:
In some embodiments a pharmaceutical composition of the invention is an oral administration form. […] In some embodiments, the oral availability of the pharmaceutical composition of the invention is in the range of 10%. In another embodiment, the oral availability of the pharmaceutical composition of the invention is above 10%. In some embodiments the pharmaceutical composition is administered once a day, twice a day or three times a day.

Data set [1] is described as follows: Stability test of the crystalline salt at 50° C. The data set is classed as physicochemical. The settings on record: 48 hours.
Data set [2] can be described thus: Hygroscopicity at 58-60% relative humidity. The data set is classed as physicochemical. The settings on record: 20-25° C.
Data set [3] can be described thus: DSC heating above the melting point, residue analyzed by TLC. The data set is classed as physicochemical. The conditions noted are these: DSC heating cycle. The source says:
During the second heating cycle the peak of melting was missing, only the high temperature decomposition was observed. […]

The conditions of data set [4]: 50° C.

Square brackets hold non-standard residues; d marks the D form. Peptide text beside a SMILES is read from it. Aib = CC(C)(N)C(=O)O

Take `CC(C)(NC(=O)[C@H](N)Cc1c[nH]c2ccccc12)C(=O)O` [compound (1)] (H-[dW]-[Aib]-OH): in the data set “Oral bioavailability”, the bioavailability was ~5%. The “solubility of crystalline forms” value in the data set “Solubility in water” is recorded as “very poor solubility”. The “Solubility at 24° C.” value in “Solubility in water” (deionized water, 24° C., stirred 1 hr, filtered, filtrate evaporated) turned out to be 1.3 w/w %. Also, the “solubility in water (concentration of solution)” value in “Solubility in water” (deionized water, room temperature) came out at 1.3 w/w %.

Regarding `CC(C)(NC(=O)[C@H](N)Cc1c[nH]c2ccccc12)C(=O)O` [UB-18813] (H-[dW]-[Aib]-OH), the “stability of crystalline salt (degradation)” value in data set [1] is “no degradation was observed”. The “hygroscopicity: weight increase of crystals” value in data set [2] (24 hours) is listed as 2.64%; in data set [2] (48 hours), 3.4%. Besides, the “decomposition after heating above the melting point” value in data set [3] is “no decomposition”. Further, in data set [4] (48 hours), the “stability of 70 w/w % aqueous solution (degradation)” value is “no degradation was observed”. Further, the “thermal stability of 70 w/w % solution in water (decomposition by TLC)” value in data set [4] (N2 atmosphere, 24 hrs) is recorded as “No traces of decomposition”.

The values above are taken from patent US12703685B2, “Crystalline forms of solvates of tryptophan derivatives, compositions comprising them and uses thereof” (GALIMEDIX THERAPEUTICS INC., priority 2020, dated 2026).
